Here are results for four compounds from patent US6977294B2, “Process for isolation of eupalitin from Boerhavia diffusa” (Council of Scientific and Industrial Research, priority 2002, dated 2005).

Entries after “also recorded” stand apart in the source; their conditions may differ. Where two headings read alike, the source gives them in different places.

One series deals with Ca^2+ channel. The following applies: frog heart single cells; cited from earlier work.
A short description of the next series: solubility in methanol. Type of series: physicochemical. From the text: The process of the present invention overcomes disadvantages of the prior art since: • 1. Aerial parts such as leaves of Boerhavia diffusa collected from specific locations identified herein are used (containing the maximum amount of the compound and as established by analyzing the samples of the plant collected during three years). • 2. The process prescribes hot continuous extraction (Soxhlet extraction) ensuring complete extraction of compound of formula 1. […] The compound is purified by direct crystallization from the residue obtained after triturition described in 3, making it the simplest, quickest, highly economically viable, scale up compatible for commercial utilization and novel method for the isolation of compound of formula 1 with an yield upto 0.4% which is more than 300 times the yield reported by Li et al.

The test system of series [1] is bone resorption induced by parathyroid hormone (PTH). The following applies: cited from earlier work; for activity compared with ipriflavone: under identical conditions, anti-osteoporosis activity.
For series [2] the following is noted: rats; cited from earlier work.
For series [3] the following is noted: cats; cited from earlier work.
The conditions of series [4]: monkeys; cited from earlier work.

For the compound `COc1cc([C@H]2OC[C@H]3[C@@H]2CO[C@@H]3c2cc(OC)c(O[C@@H]3O[C@H](CO)[C@@H](O)[C@H](O)[C@H]3O)c(OC)c2)cc(OC)c1O[C@@H]1O[C@H](CO)[C@@H](O)[C@H](O)[C@H]1O` [Liriodendrin, liriodendrin], the “Ca2+ channel block” value in the series on Ca^2+ channel is “blocked”.
As for `COc1cc2oc(-c3ccc(O)cc3)c(OC3OC(CO)C(O)C(O)C3O)c(=O)c2c(O)c1OC` [eupalitin 3-O-β-D-galactopyranoside, 5,4′-dihydroxy 6,7-dimethoxy-flavonol-3-O-β-D-galactoside], the solubility in methanol entry in “solubility in methanol” is “not highly soluble”. Also, the “inhibition of bone resorption induced by parathyroid hormone (PTH)” value in series [1] (tissue culture) is “significant (p<0.001) inhibition”. In addition, the “activity compared with ipriflavone” value in series [1] is given as “greater anti-osteoporosis activity than ipriflavone; also recorded: more than that exhibited by lpriflavone”; in series [1] (listed as 3-O-β-D-galactopyranoside), “greater anti-osteoporosis activity than ipriflavone”.
Regarding `O=c1[nH]cnc2c1ncn2C1O[C@@H](CO)[C@H](O)[C@H]1O` (stereo partly drawn) [hypoxanthine 9-L-arabinoside], the cardiovascular effects entry in series [2] is “depressor and negative chronotropic effects”; in series [3] it was “depressor and negative chronotropic effects”.
For Punarnavoside, the antifibrinolytic activity result in series [4] was “had antifibrinolytic activity”.
